Data taken from patent US9512128B2 (BAYER CROPSCIENCE AG, priority 2012, dated 2016).
Like-named read-outs stand apart in the source and are kept apart here.

Experiments:
[1] = tested on: greenhouse red spider mite (Tetranychus urticae); assay: Tetranychus urticae spray test, OP-resistant (TETRUR); type: in vivo; conditions: after 6 days, bean leaf discs
Description: 4. Tetranychus urticae Spray Test, OP-Resistant (TETRUR)
• Solvents: 78.0 parts by weight of acetone • 1.5 part by weight of dimethylformamide • Emulsifier: 0.5 part by weight of alkylaryl polyglycol ether
To produce a suitable preparation of active compound, 1 part by weight of active compound is mixed with the stated amounts of solvents and emulsifier, and the concentrate is diluted with emulsifier-containing water to the desired concentration.
Discs of bean leaves (Phaseolus vulgaris) which are infested by all stages of the greenhouse red spider mite (Tetranychus urticae) are sprayed with an active compound preparation of the desired concentration.
After 6 days, the efficacy in % is determined. 100% means that all of the spider mites have been killed; 0% means that none of the spider mites have been killed.

[2] = log P by HPLC on reversed-phase columns (C 18), EEC directive 79/831 Annex V.A8; type: physicochemical; conditions: for logP[a]: method [a]; for logP[b]: method [b]; for chromatographic logP: reversed-phase C18 HPLC column
Description: The log P values were determined according to EEC directive 79/831 Annex V.A8 by HPLC (High Performance Liquid Chromatography) on reversed-phase columns (C 18), using the methods below:
[a] The LC-MS determination in the acidic range is carried out at pH 2.7 with 0.1% aqueous formic acid and acetonitrile (contains 0.1% formic acid) as mobile phases; linear gradient from 10% acetonitrile to 95% acetonitrile.
[b] The LC-MS determination in the neutral range is carried out at pH 7.8 using the mobile phases 0.001 molar aqueous ammonium bicarbonate solution and acetonitrile; linear gradient from 10% acetonitrile to 95% acetonitrile.

| SMILES | efficacy in % (spider mites killed) ([1]; application rate 500 g/ha) [%] | further results |
| --- | --- | --- |
| CCn1ncc2c(=O)n(-c3cc([S+]([O-])CC(F)(F)F)c(C)cc3F)cnc21 (stereo not shown) [Compound 126] | 90 | – |
| Cc1cc2ncn(-c3cc([S+]([O-])CC(F)(F)F)c(C)cc3F)c(=O)c2o1 (stereo not shown) [Compound 222] | 100 | – |
| Cc1cc(F)c(-n2cnc3c(ncn3C)c2=O)cc1SCC(F)(F)F [Compound 52] | 90 | logP[a] [2]: 2.17; logP[b] [2]: 2.11 |
| Cc1cc(F)c(-n2c(C)nc3cnn(C)c3c2=O)cc1SCC(F)(F)F [Compound 39] | 90 | logP[a] [2]: 2.94; logP[b] [2]: 2.87 |
| Cc1ccc(-n2cnc3nsc(C(C)(C)C)c3c2=O)cc1SCC(F)(F)F [Compound 116] | 90 | logP[a] [2]: 4.05; logP[b] [2]: 3.96 |
| Cc1cc(F)c(-n2cnc3onc(C(F)(F)F)c3c2=O)cc1SCC(F)(F)F [Compound 197] | 100 | – |
| Cc1ccc(-n2c(C)nc3cnn(C)c3c2=O)cc1[S+]([O-])CC(F)(F)F (stereo not shown) [Compound 145] | 100 | – |
| Cc1cc(F)c(-n2c(C)nc3nn(C)cc3c2=O)cc1SCC(F)(F)F [Compound 174] | – | efficacy in % (spider mites killed) ([1]; application rate 100 g/ha): 90% |
| Cc1nc2cnn(C)c2c(=O)n1-c1cc(SCC(F)(F)F)c(Cl)cc1Cl [Compound 144] | 90 | – |
| Cc1cc(F)c(-n2cnc3cnn(C)c3c2=O)cc1SCC(F)(F)F [Compound 38] | 90 | logP[a] [2]: 2.76; logP[b] [2]: 2.76 |
| CCc1nsc2ncn(-c3cc([S+]([O-])CC(F)(F)F)c(C)cc3F)c(=O)c12 (stereo not shown) [Compound 203] | 100 | – |
| Cn1ncc2ncn(-c3cc([S+]([O-])CC(F)(F)F)c(Cl)cc3Cl)c(=O)c21 (stereo not shown) [Compound 143] | 100 | – |
| Cc1cc(C)c([S+]([O-])CC(F)(F)F)cc1-n1c(C)nc2cnn(C)c2c1=O (stereo not shown) [Compound 135] | 90 | – |
| Cc1ccc(-n2cnc3cnn(C)c3c2=O)cc1SCC(F)(F)F [Compound 138] | 100 | – |
| CCn1cnc2c(=O)n(-c3cc([S+]([O-])CC(F)(F)F)c(C)cc3F)cnc21 (racemic) [Compound 54] | 100 | logP[a] [2]: 1.60; logP[b] [2]: 1.59 |
| Cc1cc(F)c(-n2c(C)nc3cnn(C)c3c2=O)cc1SCC(F)(F)F [Compound 139] | 100 | – |
| Cn1ncc2nnn(-c3cc(SCC(F)(F)F)c(Cl)cc3F)c(=O)c21 [Compound 150] | 100 | – |
| Cc1cc(Cl)c(-n2c(C)nc3cnn(C)c3c2=O)cc1SCC(F)(F)F [Compound 152] | 90 | – |
| Cc1nc2c(=O)n(-c3cc([S+]([O-])CC(F)(F)F)c(C)cc3C)c(C)nc2s1 (stereo not shown) [Compound 186] | 90 | – |

| SMILES | efficacy in % (spider mites killed) ([1]; application rate 500 g/ha) [%] | further results |
| --- | --- | --- |
| CC(C)(C)c1snc2ncn(-c3ccc(Cl)c(SCC(F)(F)F)c3)c(=O)c12 [Compound 117] | 90 | logP[a] [2]: 4.06; logP[b] [2]: 3.97 |
| Cc1cc(F)c(-n2cnc3c(C)scc3c2=O)cc1[S+]([O-])CC(F)(F)F (stereo not shown) [Compound 220] | 90 | – |
| Cc1cc(F)c(-n2cnc3c(C)nn(C)c3c2=O)cc1SCC(F)(F)F [Compound 128] | 100 | – |
| Cc1cc(F)c(-n2c(C)nc3scnc3c2=O)cc1[S+]([O-])CC(F)(F)F (stereo not shown) [Compound 68] | 90 | logP[a] [2]: 1.72; logP[b] [2]: 1.70 |
| Cc1cc(Cl)c(-n2nnc3cnn(C)c3c2=O)cc1SCC(F)(F)F [Compound 154] | 90 | – |
| Cn1ncc2c(=O)n(-c3ccc(C#N)c([S+]([O-])CC(F)(F)F)c3)cnc21 (racemic) [Compound 26] | 90 | logP[a] [2]: 1.51; logP[b] [2]: 1.56 |
| Cn1ncc2ncn(-c3cc(SCC(F)(F)F)c(Cl)cc3Cl)c(=O)c21 [Compound 140] | 100 | – |
| Cc1cc(C)c(-n2cnc3cnn(C)c3c2=O)cc1SCC(F)(F)F [Compound 130] | 100 | – |
| Cc1cc(F)c(-n2cnc3c(C)n(C)nc3c2=O)cc1SCC(F)(F)F [Compound 213] | 100 | – |
| Cc1cc(F)c(-n2cnc3nsc(C(C)(C)C)c3c2=O)cc1[S+]([O-])CC(F)(F)F (stereo not shown) [Compound 192] | 90 | – |
| Cc1cc(F)c(-n2nnc3c(cnn3C)c2=O)cc1SCC(F)(F)F [Compound 119, 3-{2-Fluoro-4-methyl-5-[(2,2,2-trifluoroethyl)sulphanyl]phenyl}-7-methyl-3,7-dihydro-4H-pyrazolo[3,4-d][1,2,3]triazin-4-one] | 90 | chromatographic logP ([2]; pH 2.7, acidic range, pH 2.7, 0.1% aqueous formic acid / acetonitrile, read-out: log P[a]): 3.16; chromatographic logP ([2]; pH 2.7, method [a], read-out: logP[a]): 3.16; chromatographic logP ([2]; pH 7.8, method [b], read-out: logP[b]): 3.13; chromatographic logP ([2]; pH 7.8, neutral range, pH 7.8, 0.001 molar aqueous ammonium bicarbonate / acetonitrile, read-out: log P[b]): 3.13 |
| Cc1cc(C)c(-n2c(C)nc3cnn(C)c3c2=O)cc1SCC(F)(F)F [Compound 131] | 90 | – |
| Cc1cc(C)c([S+]([O-])CC(F)(F)F)cc1-n1nnc2cnn(C)c2c1=O (stereo not shown) [Compound 132] | 100 | – |
| Cc1cc(F)c(-n2cnc3onc(C(C)C)c3c2=O)cc1SCC(F)(F)F [Compound 193] | 100 | – |
| Cc1cc(Cl)c(-n2cnc3cnn(C)c3c2=O)cc1SCC(F)(F)F [Compound 151] | 100 | – |
| Cc1cc(F)c(-n2cnc3c(C)n(C)nc3c2=O)cc1[S+]([O-])CC(F)(F)F (stereo not shown) [Compound 214] | 90 | – |
| Cc1cc(F)c(-n2cnc3c(C)nsc3c2=O)cc1SCC(F)(F)F [Compound 180] | 90 | – |
| Cc1cc(F)c(-n2cnc3csc(C)c3c2=O)cc1[S+]([O-])CC(F)(F)F (stereo not shown) [Compound 218] | 90 | – |
| Cc1cc(Cl)c(-n2cnc3cnn(C)c3c2=O)cc1[S+]([O-])CC(F)(F)F (stereo not shown) [Compound 158] | 100 | – |

| SMILES | efficacy in % (spider mites killed) ([1]; application rate 500 g/ha) [%] | further results |
| --- | --- | --- |
| Cc1cc(F)c(-n2cnc3sccc3c2=O)cc1SCC(F)(F)F [Compound 92] | 100 | logP[a] [2]: 3.22; logP[b] [2]: 3.14 |
| CCn1ncc2c(=O)n(-c3cc([S+]([O-])CC(F)(F)F)c(C)cc3F)c(C)nc21 (stereo not shown) [Compound 127] | 100 | – |
| Cc1cc(C)c(-n2nnc3cnn(C)c3c2=O)cc1SCC(F)(F)F [Compound 133] | 90 | – |
| Cc1cc(F)c(-n2cnc3ncn(C)c3c2=O)cc1[S+]([O-])CC(F)(F)F (stereo not shown) [Compound 178] | 100 | – |
| Cc1cc(C)c([S+]([O-])CC(F)(F)F)cc1-n1cnc2scnc2c1=O (stereo not shown) [Compound 66] | 90 | logP[a] [2]: 1.6; logP[b] [2]: 1.62 |
| Cc1cc(F)c(-n2nnc3cnn(C)c3c2=O)cc1SCC(F)(F)F [Compound 137] | 100 | – |
| CCn1cc2c(=O)n(-c3cc(SCC(F)(F)F)c(C)cc3F)cnc2n1 [Compound 176] | 90 | – |
| Cc1cc(F)c(-n2cnc3cn(C)nc3c2=O)cc1[S+]([O-])CC(F)(F)F (stereo not shown) [Compound 216] | 100 | – |
| Cc1cc(F)c(-n2cnc3c(ncn3C)c2=O)cc1[S+]([O-])CC(F)(F)F (stereo not shown) [Compound 179] | 100 | – |
| Cc1cc(F)c(-n2cnc3nn(C)cc3c2=O)cc1SCC(F)(F)F [Compound 173] | 90 | – |
| Cc1cc(C)c(-n2cnc3ncsc3c2=O)cc1SCC(F)(F)F [Compound 76] | 90 | logP[a] [2]: 2.62; logP[b] [2]: 2.59 |
| Cc1cc(F)c(-n2c(C)nc3c(cnn3CC(F)(F)F)c2=O)cc1SCC(F)(F)F [Compound 20] | 90 | logP[a] [2]: 3.50; logP[b] [2]: 3.44 |
| Cc1cc(F)c(-n2c(C)nc3cnn(C(C)C)c3c2=O)cc1[S+]([O-])CC(F)(F)F (stereo not shown) [Compound 166] | 100 | – |
| Cc1nc2c(=O)n(-c3cc([S+]([O-])CC(F)(F)F)c(C)cc3F)cnc2s1 (stereo not shown) [Compound 190] | 90 | – |
| Cc1cc(F)c(-n2cnc3c(C)scc3c2=O)cc1SCC(F)(F)F [Compound 219] | 100 | – |
| Cc1cc(F)c(-n2cnc3csc(C)c3c2=O)cc1SCC(F)(F)F [Compound 217] | 90 | – |
| Cc1nc2c(=O)n(-c3cc([S+]([O-])CC(F)(F)F)c(C)cc3F)c(C)nc2s1 (stereo not shown) [Compound 185] | 90 | – |
| Cc1nc2c(=O)n(-c3cc(SCC(F)(F)F)c(C)cc3F)cnc2s1 [Compound 189] | 90 | – |
| Cn1ncc2ncn(-c3cc([S+]([O-])CC(F)(F)F)c(Cl)cc3F)c(=O)c21 (stereo not shown) [Compound 156] | 100 | – |
